Molecular target: Serine-protein kinase ATM (Homo sapiens, UniProt Q13315)
Assay: Inhibition of ATM (unknown origin) using GST-cMyc-p53 as substrate incubated for 30 mins in presence of Mg/ATP mix by HTRF-based analysis

Serine-protein kinase ATM, sequence (Q13315 whole entry): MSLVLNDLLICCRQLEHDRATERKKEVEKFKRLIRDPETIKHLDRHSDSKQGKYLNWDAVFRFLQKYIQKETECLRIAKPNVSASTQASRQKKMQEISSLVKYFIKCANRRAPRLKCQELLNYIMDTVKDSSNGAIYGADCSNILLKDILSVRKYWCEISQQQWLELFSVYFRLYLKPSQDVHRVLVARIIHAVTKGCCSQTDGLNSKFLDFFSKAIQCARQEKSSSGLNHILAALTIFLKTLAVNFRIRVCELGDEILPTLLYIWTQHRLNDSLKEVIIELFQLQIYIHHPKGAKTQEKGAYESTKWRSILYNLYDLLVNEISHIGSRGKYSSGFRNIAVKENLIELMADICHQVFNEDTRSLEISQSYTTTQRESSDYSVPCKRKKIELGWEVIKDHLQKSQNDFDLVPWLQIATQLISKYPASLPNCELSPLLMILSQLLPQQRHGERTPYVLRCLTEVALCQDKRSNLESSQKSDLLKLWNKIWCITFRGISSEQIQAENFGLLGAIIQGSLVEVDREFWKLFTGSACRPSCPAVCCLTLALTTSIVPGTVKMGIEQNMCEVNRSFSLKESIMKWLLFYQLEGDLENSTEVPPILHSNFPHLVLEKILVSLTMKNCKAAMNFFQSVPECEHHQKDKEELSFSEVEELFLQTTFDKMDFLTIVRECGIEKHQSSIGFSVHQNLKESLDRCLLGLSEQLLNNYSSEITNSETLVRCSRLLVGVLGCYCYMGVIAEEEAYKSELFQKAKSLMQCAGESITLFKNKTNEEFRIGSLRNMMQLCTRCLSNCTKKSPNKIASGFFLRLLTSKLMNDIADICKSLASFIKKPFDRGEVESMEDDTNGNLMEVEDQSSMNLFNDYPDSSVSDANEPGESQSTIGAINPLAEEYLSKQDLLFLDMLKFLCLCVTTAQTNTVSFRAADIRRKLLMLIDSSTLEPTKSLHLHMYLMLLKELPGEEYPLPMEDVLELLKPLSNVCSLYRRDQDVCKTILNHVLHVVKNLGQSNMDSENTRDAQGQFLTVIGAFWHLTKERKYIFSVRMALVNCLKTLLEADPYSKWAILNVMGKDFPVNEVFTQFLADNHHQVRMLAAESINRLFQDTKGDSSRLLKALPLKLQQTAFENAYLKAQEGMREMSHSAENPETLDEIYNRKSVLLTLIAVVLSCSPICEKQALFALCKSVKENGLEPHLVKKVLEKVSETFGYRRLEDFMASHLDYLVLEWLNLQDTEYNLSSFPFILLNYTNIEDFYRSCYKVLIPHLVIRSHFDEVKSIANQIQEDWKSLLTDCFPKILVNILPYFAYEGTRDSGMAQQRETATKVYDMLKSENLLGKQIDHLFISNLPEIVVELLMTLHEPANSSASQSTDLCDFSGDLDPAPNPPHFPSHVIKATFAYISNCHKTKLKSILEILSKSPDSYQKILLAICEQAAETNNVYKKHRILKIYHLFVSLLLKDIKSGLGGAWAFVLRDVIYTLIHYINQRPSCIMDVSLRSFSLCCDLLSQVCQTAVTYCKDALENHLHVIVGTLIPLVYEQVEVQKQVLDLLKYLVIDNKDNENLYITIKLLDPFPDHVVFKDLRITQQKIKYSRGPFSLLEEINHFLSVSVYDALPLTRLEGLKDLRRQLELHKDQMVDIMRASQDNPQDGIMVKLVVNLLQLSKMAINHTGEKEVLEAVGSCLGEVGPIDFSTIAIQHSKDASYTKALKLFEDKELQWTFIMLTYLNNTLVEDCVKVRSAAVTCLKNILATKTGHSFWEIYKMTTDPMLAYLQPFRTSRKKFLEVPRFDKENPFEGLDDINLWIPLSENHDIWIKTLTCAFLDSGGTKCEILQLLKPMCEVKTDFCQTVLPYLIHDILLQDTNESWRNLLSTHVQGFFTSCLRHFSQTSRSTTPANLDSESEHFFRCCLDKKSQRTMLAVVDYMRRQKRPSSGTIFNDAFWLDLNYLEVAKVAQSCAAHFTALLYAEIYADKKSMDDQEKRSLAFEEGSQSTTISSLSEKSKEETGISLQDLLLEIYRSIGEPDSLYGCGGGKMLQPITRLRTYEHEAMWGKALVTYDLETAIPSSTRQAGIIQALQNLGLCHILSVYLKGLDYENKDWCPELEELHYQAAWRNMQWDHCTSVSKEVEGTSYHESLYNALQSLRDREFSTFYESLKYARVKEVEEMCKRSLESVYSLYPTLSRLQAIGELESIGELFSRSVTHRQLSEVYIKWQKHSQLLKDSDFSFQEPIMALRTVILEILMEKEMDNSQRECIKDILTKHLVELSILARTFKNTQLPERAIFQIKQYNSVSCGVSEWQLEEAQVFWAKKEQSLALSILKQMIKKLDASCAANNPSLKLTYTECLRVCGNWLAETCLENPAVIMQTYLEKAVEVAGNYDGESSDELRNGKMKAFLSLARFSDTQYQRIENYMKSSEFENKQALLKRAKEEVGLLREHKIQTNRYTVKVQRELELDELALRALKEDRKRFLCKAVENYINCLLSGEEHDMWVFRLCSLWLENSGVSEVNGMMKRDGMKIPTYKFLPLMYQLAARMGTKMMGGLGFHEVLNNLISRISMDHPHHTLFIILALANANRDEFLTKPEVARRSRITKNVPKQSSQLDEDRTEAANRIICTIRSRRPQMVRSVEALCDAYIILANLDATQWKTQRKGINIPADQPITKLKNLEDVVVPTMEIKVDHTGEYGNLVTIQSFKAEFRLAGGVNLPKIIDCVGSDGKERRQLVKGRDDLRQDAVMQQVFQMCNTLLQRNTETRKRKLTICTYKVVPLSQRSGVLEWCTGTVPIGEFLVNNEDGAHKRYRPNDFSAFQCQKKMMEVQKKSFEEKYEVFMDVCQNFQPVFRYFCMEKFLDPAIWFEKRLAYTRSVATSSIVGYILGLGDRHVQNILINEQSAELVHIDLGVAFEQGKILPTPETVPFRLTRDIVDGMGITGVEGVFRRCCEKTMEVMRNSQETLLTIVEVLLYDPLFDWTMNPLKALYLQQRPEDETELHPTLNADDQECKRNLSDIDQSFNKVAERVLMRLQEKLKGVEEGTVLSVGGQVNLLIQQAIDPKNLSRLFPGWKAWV

SMILES: CC[C@@H](c1ccccc1)n1nnc2cnc3ccc(-c4ccc(N)nc4)cc3c21
- IC50: 79 nM

SMILES: COc1cccc([C@@H](C)n2nnc3cnc4ccc(-c5ccc(N)nc5)cc4c32)c1
- IC50: 5 nM

SMILES: C[C@H](c1ccccc1)n1nnc2cnc3ccc(-c4ccc(N5CCCC5)nc4)cc3c21
- IC50: 71 nM

SMILES: C[C@H](c1ccccc1)n1nnc2cnc3ccc(-c4ccc(C#N)nc4)cc3c21
- IC50: 167 nM

SMILES: C[C@@H](c1ccccc1)n1nnc2cnc3ccc(-c4ccc(N)nc4)cc3c21
- IC50: 45 nM

SMILES: C[C@H](c1ccccc1)n1nnc2cnc3ccc(-c4cnc(N)nc4)cc3c21
- IC50: 15 nM

SMILES: C[C@H](c1ccccc1)n1nnc2cnc3ccc(-c4ccc(Cl)nc4)cc3c21
- IC50: 31 nM

SMILES: CC(=O)Nc1ccc(-c2ccc3ncc4nnn([C@H](C)c5ccccc5)c4c3c2)cn1
- IC50: 13 nM

SMILES: C[C@H](c1ccccc1)n1nnc2cnc3ccc(-c4ccc(OCCCN5CCN(C)CC5)nc4)cc3c21
- IC50: 2 nM

SMILES: C[C@H](c1ccccc1)n1nnc2cnc3ccc(-c4ccc(N)nc4)cc3c21
- IC50: 2 nM

SMILES: CNCCCOc1ccc(-c2ccc3ncc4nnn([C@H](C)c5ccccc5)c4c3c2)cn1
- IC50: 166 nM

SMILES: C[C@@H](c1cccc(F)c1)n1nnc2cnc3ccc(-c4ccc(N)nc4)cc3c21
- IC50: 53 nM

SMILES: C[C@H](c1ccccc1)n1nnc2cnc3ccc(-c4ccc(F)cc4)cc3c21
- IC50: 174 nM

SMILES: C[C@H](c1ccccc1)n1nnc2cnc3ccc(-c4cnc(N(C)C)nc4)cc3c21
- IC50: 482 nM

SMILES: COc1ccc(-c2ccc3ncc4nnn([C@H](C)c5ccccc5)c4c3c2)cn1
- IC50: 13 nM

SMILES: C[C@H](c1ccccc1)n1nnc2cnc3ccc(-c4ccnc(N)c4)cc3c21
- IC50: 22 nM

SMILES: Cn1nnc2cnc3ccc(-c4ccc(N)nc4)cc3c21
- IC50: 243 nM

SMILES: C[C@H](c1ccccc1)n1nnc2cnc3ccc(-c4ccc(F)nc4)cc3c21
- IC50: 57 nM

SMILES: C[C@H](c1ccccc1)n1nnc2cnc3ccc(-c4ccc(OCCCCN(C)C)nc4)cc3c21
- IC50: 10 nM

Reference: ChEMBL document CHEMBL5316381, “Discovery of [1,2,3]Triazolo[4,5-c]quinoline Derivatives as a New Class of Ataxia-Telangiectasia Mutated Kinase Inhibitors” (ACS Med Chem Lett, 2023)
